In patent US20060160883A1, “Regulation of immune system action in mammals through use of a multi-tiered model of immune system function” (priority 2005, published 2006):

System: osteosarcoma (bone cancer) and chondrosarcoma (cartilage cancer)
Test: Treatment of one dog (Maggie, 12 year old Border Collie) with bone and cartilage cancer after leg amputation
Assay type: in vivo
Source text: The mammal involved is Maggie, a 12 year old, neutered female Border Collie. • 1) The IDO-producing diseases or conditions in this case are osteosarcoma (bone cancer) and chondrosarcoma (cartilage cancer). • 2) There are three parts to treatment in this model. There must be a choice or choices from Treatment Part A. There may be choice(s) from Treatment Part B and/or Part C. • A) The goal of Treatment Part A is to “turn off” IDO and/or its actions. The choice I used in this case was an antioxidant to compete with IDO for O2. • The antioxidant I used was ascorbic acid in the form of Ester-C, a licensed trademark of Zila Neutraceuticals, Inc. It is manufactured under U.S. Pat. Nos. 4,822,816 and 5,070,085. It was purchased at Sam's Club and the bottle contained 500 500 mg caplets with Rose Hips.
The doseage was bowel tolerance level which in this case was 3-4½ grams per day. • B) The goal of Treatment Part B is to build up the immune system. […] This is not, however, seen as a cure for either type of cancer she had. • Another choice was pain medication. • Yet another choice was antibiotics after the surgery to prevent infection while she healed. • My other treatment of choice was Vitamin D3. I purchased KAL brand D-400. (This stands for 400 IUs of Vitamin D3). I purchased them at several health food stores. There were 100 softgels per bottle and each softgel contained 400 IUs of D3 as well as 600 IUs of Vitamin A. They were manufactured by Nutraceutical Corp. for Makers of KAL, Inc. • Maggie's dosage most of the time was 6 softgels (2400 IUs) per day. For one week in November, she had no Vitamin D3, then after that, 10 (4000 IUs) per day for a short time, then 8 (3200 IUs) per day. • The total cost per month for Ester-C and D-400 was approximately $25.
Also, on July 12, she started taking Vitamin D3. (She started with 2 per day, and by July 14th, was taking 6 per day. She took 3 in the morning and 3 at night from then until October 30.) The hope was that the D3 could buy some time.
August 25, in addition to Vitamin D3, Maggie started taking Vitamin C (Ester-C caplets). That evening, she was given 3 caplets (one and one half grams).
The morning of August 26, she was given 4 caplets (2 grams). The goal was to find her bowel tolerance level.
Treatment resumed, this time with 9 softgels of Vitamin D3 per day and 9 caplets of Ester-C per day. That afternoon, […] developed a fever that lasted until afternoon of the next day.
A week later, she was taking 7 Ester-C and 10 D3 per day, but the D3 was dropped to 8 per day by November 21.

Row | SMILES | alkaline phosphatase level (blood test) (August 15, Vitamin D3 6 softgels (2400 IUs) per day since July 12 after amputation, level before treatment 3175, normal range 5-131) | lung X-rays (August 15, on Vitamin D3 after amputation) | signs of Vitamin D3 overdose (blood test) (November 3, after 6 softgels (2400 IUs) per day July 14 to October 30) | calcium deposits in organs on x-ray (a symptom of D3 overdose) (November 5) | overall effect of the treatment on the cancer (autopsy findings) (Ester-C plus Vitamin D3 after amputation, only microscopic cells and clusters in liver, bone tumor area being replaced) | alkaline phosphatase level (blood test) (November 3, Ester-C at bowel tolerance since August 25 in addition to Vitamin D3 (D3 stopped October 30), before treatment 3175) | alkaline phosphatase level (blood test) (November 5, Vet Emergency Hospital (different lab), Ester-C plus Vitamin D3 treatment) | lung and lower abdominal x-rays, sign of cancer (November 5, Ester-C plus Vitamin D3 treatment) | autopsy, cancer in lungs (after death December 18, Ester-C plus Vitamin D3 treatment) | alertness, behaviour (evening of August 26, one day after start of Ester-C (3 then 4 caplets) in addition to Vitamin D3)
1 | C=C1CC[C@H](O)C/C1=C/C=C1\CCC[C@]2(C)[C@@H]([C@H](C)CCCC(C)C)CC[C@@H]12 [Vitamin D3] | 3113 | no lung cancer tumors | no signs of Vitamin D3 overdose | no calcium deposits in any organs |  |  |  |  |  | 
2 | O=C1O[C@H]([C@@H](O)CO)C(O)=C1O [Vitamin C, ascorbic acid] |  |  |  |  | seemed to be working on the cancer | 2230 | 1669 | no sign of cancer | no cancer in her lungs | alert and awake
